We go through one compound from patent US10633429B2, “Human antibody κ type light chain complex-containing composition and method for producing same” (JAPAN SCIENCE AND TECHNOLOGY AGENCY, priority 2013, dated 2020).

Holding throughout (format): cell-based
Assay [1] has as its system SNU-1 cell line (human metastatic gastric cancer cell line). Briefly: Cytotoxicity assay (WST assay), SNU-1 cell line. The protocol: (§1) The cytotoxicity of each complex-containing composition to cancer cells was tested using cancer cell lines. As the cancer cell lines, A549 cell line (human alveolar epithelial cancer cell line), ES-2 cell line (human ovarian cancer cell line), MOLT-4 cell line (human acute lymphoblastic leukemia T cell line), BxPC-3 cell line (human pancreatic adenocarcinoma cell line), SNU-1 cell line (human metastatic gastric cancer cell line), and PANC-1 cell line (human pancreatic cancer cell line) were used.
(§2) All of these cell lines were purchased from ATCC (American Type Culture Collection). Here, the A549 cell line was cultured using a 10% FCS (fetal calf serum)-containing F-12K culture medium by a general method, the ES-2 cell line was cultured using a 10% FCS-containing McCoy's 5A culture medium by a general method, each of the MOLT-4 cell line, SNU-1 cell line, and BxPC-3 cell line was cultured using a 10% FCS-containing RPMI-1640 culture medium by a general method, the PANC-1 cell line was cultured using a 10% FCS-containing DMEM culture medium by a general method, and the WI-38 cell line was cultured using a 10% FCS-containing EMEM culture medium by a general method.
(§3) First, after being recovered by thawing the frozen cancer cell lines, the recovered cancer cell lines were seeded in a 96-well plate by 100 μL to be 5×10^3 cells/well (the number of seeds was appropriately adjusted by cell species). After culturing was carried out at 37° C. for 24 hours, a culture medium to be added to the 96-well plate was removed by decantation, and then each complex-containing composition prepared at a concentration of about 1 mg/mL was added to each well by 100 μL. After culturing was carried out for 24 hours or 48 hours from the addition of the complex-containing composition (after cells are planted and cultivated for 48 hours or 72 hours), a WST-1 reagent (manufactured by Roche Inc.) was added to each well by 10 μL and incubated for 1, 1.5, and 2 hours to form a formazan dye, and then the absorbance (Abs at 450 nm) of the formazan dye was measured (WST assay). As a control, a human antibody κ type light chain not bound to metal ions or PBS was added instead of the complex-containing composition and cultured for 24 hours or 48 hours, and then WST assay was carried out. Based on the results of the obtained absorbance, the cell survival rate of the well added with the human antibody κ type light chain not bound to metal ions or the well added with the PBS was set to 100%, and the cell survival rate of each well was determined, so as to evaluate the cytotoxicity of the added complex-containing composition.

Assay [2] has as its system WI-38 cell line (human fetal lung fibroblast cell line). Briefly: Cytotoxicity assay (WST assay), WI-38 control cell line. The settings on record: Example 5; cisplatin 4.2 μM; 24 hours; PBS set to 100%. The protocol: In addition, as a control, WI-38 cell line (human fetal lung fibroblast cell line) was also used.
(§4) All of these cell lines were purchased from ATCC (American Type Culture Collection). […]
as §3, with “After culturing was carried out at 37° C. for 24 hours, a culture medium to be added to the 96-well plate was removed by decantation, and then each complex-containing composition prepared at a concentration of about 1 mg/mL was added to each well by 100 μL.” left out, “As a control, a human antibody κ type light chain not bound to metal ions or PBS was added instead of the complex-containing composition and cultured for 24 hours or 48 hours, and then WST assay was carried out.” left out

Assay [3] relates to PANC-1 cell line (human pancreatic cancer cell line). Briefly: Cytotoxicity assay (WST assay), PANC-1 cell line. The following applies: Example 2, Fr. 3B set to 100%. The protocol: as §1, §2
as §3, with “After culturing was carried out at 37° C. for 24 hours, a culture medium to be added to the 96-well plate was removed by decantation, and then each complex-containing composition prepared at a concentration of about 1 mg/mL was added to each well by 100 μL.” left out

The test system of assay [4] is A549 cell line (human alveolar epithelial cancer cell line). Briefly: Cytotoxicity assay (WST assay), A549 cell line. The settings on record: Example 5; C51 incubated with metal ions 4 μM or cisplatin 4 μM; 24 hours; PBS set to 100%. As to the method: as §1, §4
First, after being recovered by thawing the frozen cancer cell lines, the recovered cancer cell lines were seeded in a 96-well plate by 100 μL to be 5×10^3 cells/well (the number of seeds was appropriately adjusted by cell species). […] After culturing was carried out for 24 hours or 48 hours from the addition of the complex-containing composition (after cells are planted and cultivated for 48 hours or 72 hours), a WST-1 reagent (manufactured by Roche Inc.) was added to each well by 10 μL and incubated for 1, 1.5, and 2 hours to form a formazan dye, and then the absorbance (Abs at 450 nm) of the formazan dye was measured (WST assay). […]

Where [5] appears, read: Example 2, #7_wt fractions 4 μM (100 μg/mL) or cisplatin 4 μM, Fr. 3B set to 100%.
[6] abbreviates: Example 2, cisplatin 33 μM, Fr. 3B set to 100%.
Where [7] appears, read: #7_wt fractions 4 μM (100 μg/mL) or cisplatin 4 μM.

For `N.N.[Cl][Pt][Cl]` [Cisplatin, cisplatin], the “Relative cell survival rate, SNU-1 cell line, 24 h” value was determined as 85.0% in assay [1] (setting [5]); 32.0% in assay [1] (setting [6]); 89.5% in assay [1] (Example 3, cisplatin 4 μM, Fr. 3B (#7_C219A) set to 100%). In addition, the figures for the “Relative cell survival rate, SNU-1 cell line, 48 h” value in assay [1] (setting [5]) and in assay [1] (setting [6]) were 32.5% and 5.8%, respectively. Moreover, the figures for the “Relative cell survival rate” value in assay [2] and in assay [4] were 40% and “about 60%”, respectively. The “Relative cell survival rate, PANC-1 cell line, 24 h” value in assay [3] (setting [7]) came out at 109.3%; in assay [3] (cisplatin 33 μM), 60.3%. For the same compound, the “Relative cell survival rate, PANC-1 cell line, 48 h” value is 82.1% in assay [3] (setting [7]) and 9.6% in assay [3] (cisplatin 33 μM).
